This note sets out measurements from patent US10538487B2, “Sulfonylureas and related compounds and use of same” (priority 2015, dated 2020).

Molecules are shown by their SMILES. A value given as a limit tells only on which side of the number the result lay.

Chain of NLRP3 inflammasome (Mus musculus, UniProt Q8R4B8) (Q8R4B8 whole entry): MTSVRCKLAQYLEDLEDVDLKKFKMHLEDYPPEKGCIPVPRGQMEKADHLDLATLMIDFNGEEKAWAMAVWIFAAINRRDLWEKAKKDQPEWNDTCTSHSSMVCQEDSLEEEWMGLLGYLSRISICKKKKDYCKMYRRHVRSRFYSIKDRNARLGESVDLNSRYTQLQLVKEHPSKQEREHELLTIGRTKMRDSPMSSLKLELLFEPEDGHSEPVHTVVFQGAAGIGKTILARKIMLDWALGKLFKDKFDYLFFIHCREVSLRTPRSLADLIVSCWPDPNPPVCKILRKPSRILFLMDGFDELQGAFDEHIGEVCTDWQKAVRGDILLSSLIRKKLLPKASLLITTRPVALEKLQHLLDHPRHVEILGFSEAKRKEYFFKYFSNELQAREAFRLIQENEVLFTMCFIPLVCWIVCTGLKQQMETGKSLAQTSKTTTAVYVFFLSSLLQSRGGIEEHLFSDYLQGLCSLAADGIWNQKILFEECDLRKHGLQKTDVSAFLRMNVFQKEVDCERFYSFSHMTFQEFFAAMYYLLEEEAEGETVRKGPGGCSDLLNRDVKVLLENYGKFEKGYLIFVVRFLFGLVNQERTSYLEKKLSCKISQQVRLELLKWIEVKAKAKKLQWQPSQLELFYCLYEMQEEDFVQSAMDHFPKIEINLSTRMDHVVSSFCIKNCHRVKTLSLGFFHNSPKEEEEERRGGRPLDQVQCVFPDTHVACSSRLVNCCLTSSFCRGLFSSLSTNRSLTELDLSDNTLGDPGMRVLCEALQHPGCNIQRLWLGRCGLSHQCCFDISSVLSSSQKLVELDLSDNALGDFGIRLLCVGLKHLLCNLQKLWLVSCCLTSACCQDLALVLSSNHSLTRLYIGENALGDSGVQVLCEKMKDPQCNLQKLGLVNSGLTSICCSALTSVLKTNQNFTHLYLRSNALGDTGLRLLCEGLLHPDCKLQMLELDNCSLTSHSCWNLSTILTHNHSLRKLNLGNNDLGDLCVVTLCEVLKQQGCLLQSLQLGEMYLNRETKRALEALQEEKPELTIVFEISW

One test has as its target NLRP3 inflammasome (Mus musculus, UniProt Q8R4B8). The test is described as follows: Inhibition of IL-1β release, NLRP3 inflammasome activation assay in BMDM. Conditions: commercial compounds (Table 9), read-out: BMDM IC50 vs NLRP3. The test is classed as cell-based. Here is the method: (§1) The following assays can be used to determine inhibitory activity of test compounds on the NLRP3 inflammasome using common stimuli such as adenosine triphosphate, nigericin, LeuLeu-OMe or monosodium urate crystals (MSU).
Mouse bone marrow-derived macrophages (BMDM) were derived from bone marrow progenitors isolated from the femurs and tibias of C57BL/6 mice.
BMDM are seeded at 1×10^5/ml. The following day the overnight medium is replaced and cells are stimulated with Ultrapure lipopolysaccharide from Escherichia coli K12 strain (InvivoGen) for 3 h. Medium is removed and replaced with serum free medium (SFM) containing test compound 30 min prior to NLRP3 stimulation. […] ATP can be sourced from Sigma Aldrich, nigericin and MSU from Invivogen and LeuLeu-Ome from Chem-Impex International.
(§2) For ELISA and cell death assays cells are seeded in 96 well plates. Supernatants are removed and analysed using ELISA kits according to the manufacturer's instructions (DuoSet® R&D Systems, ReadySetGo!® eBioscience, BD OptEIA™, or Perkin Elmer AlphaLISA®). Cell death is assessed by measurement of LDH release relative to a 100% cell lysis control using the CytoTox96® non-radioactive cytotoxicity assay (Promega).
In the case of `Cc1cc(C(=O)NCCc2ccc(S(N)(=O)=O)cc2)no1` [Glisoxepide Precursor, reference compound], the IC50 (as a rule, the midpoint of a concentration-inhibition curve) is above 10000 µM.

Staying with this test, now noted: inhibition of IL-1β release, class symbols, read-out: Avg. IL-1β IC50 Murine BMDM.
On to `CC(C)(O)c1coc(S(=O)(=O)NC(=O)Nc2c3c(cc4c2OCC4)OCC3)c1` [4-(2-hydroxypropan-2-yl)-N-((2,3,6,7-tetrahydrobenzo[1,2-b:4,5-b′]difuran-4-yl)carbamoyl)furan-2-sulfonamide], for which the IC50 is below 1 µM.
Take `COc1ccccc1NC(=O)NS(=O)(=O)c1cc(C(C)(C)O)co1` [4-(2-hydroxypropan-2-yl)-N-((2-methoxyphenyl)carbamoyl)furan-2-sulfonamide]: the IC50 was below 10 µM.
Still for that read-out and setting: with `CC(C)(O)c1coc(S(=O)(=O)NC(=O)Nc2c3c(cc4c2CCO4)CCC3)c1` [4-(2-hydroxypropan-2-yl)-N-((3,5,6,7-tetrahydro-2H-indeno[5,6-b]furan-4-yl)carbamoyl)furan-2-sulfonamide] the figure was below 0.1 µM; with `CC(C)(O)c1coc(S(=O)(=O)NC(=O)Nc2c3c(cc4c2OCC4)CCC3)c1` [4-(2-hydroxypropan-2-yl)-N-((3,5,6,7-tetrahydro-2H-indeno[5,6-b]furan-8-yl)carbamoyl)furan-2-sulfonamide], below 0.1 µM.
Same read-out and setting: with `O=C(Nc1c2c(cc3c1CCC3)CCC2)NS(=O)(=O)c1cc(C(=O)O)co1` [5-(N-((1,2,3,5,6,7-hexahydro-s-indacen-4-yl)carbamoyl)sulfamoyl)furan-3-carboxylic acid] the figure was below 10 µM.
On the same count and under the same terms, to `CC(C)c1cc(Cl)cc(C(C)C)c1NC(=O)NS(=O)(=O)c1ccc2cc(Cl)ccc2c1` [6-chloro-N-((4-chloro-2,6-diisopropylphenyl)carbamoyl)naphthalene-2-sulfonamide] belongs below 0.1 µM; to `Cc1oc(S(=O)(=O)NC(=O)Nc2c3c(cc4c2CCC4)CCC3)cc1C(C)(C)O` [N-((1,2,3,5,6,7-hexahydro-s-indacen-4-yl)carbamoyl)-4-(2-hydroxypropan-2-yl)-5-methylfuran-2-sulfonamide], below 0.1 µM.
Regarding `O=C(Nc1c2c(cc3c1CCC3)CCC2)NS(=O)(=O)c1ccc([N+](=O)[O-])cc1` [N-((1,2,3,5,6,7-hexahydro-s-indacen-4-yl)carbamoyl)-4-nitrobenzenesulfonamide], the IC50 was below 0.1 µM.
Same read-out and setting: to `O=C(Nc1c2c(cc3c1CCC3)CCC2)NS(=O)(=O)c1nnc[nH]1` [N-((1,2,3,5,6,7-hexahydro-s-indacen-4-yl)carbamoyl)-4H-1,2,4-triazole-3-sulfonamide] belongs below 0.1 µM.
On the same count and under the same terms, to `O=C(Nc1c2c(cc3c1CCC3)CCC2)NS(=O)(=O)c1cn2c(n1)CCC2` [N-((1,2,3,5,6,7-hexahydro-s-indacen-4-yl)carbamoyl)-6,7-dihydro-5H-pyrrolo[1,2-a]imidazole-2-sulfonamide] belongs below 1 µM; to `CC(C)(O)c1coc(S(=O)(=O)NC(=O)Nc2cccc3c2OCCO3)c1` [N-((2,3-dihydrobenzo[b][1,4]dioxin-5-yl)carbamoyl)-4-(2-hydroxypropan-2-yl)furan-2-sulfonamide], below 10 µM.

Staying with this test, now noted: inhibition of IL-1β release, numeric bounds, read-out: Avg. IL-1β IC50 Murine BMDM.
Consider `CC(C)n1ccc(S(=O)(=O)NC(=O)Nc2c(C(=O)N(C)C)cc(Cl)cc2C2CC2)n1` [5-chloro-3-cyclopropyl-2-(3-((1-isopropyl-1H-pyrazol-3-yl)sulfonyl)ureido)-N,N-dimethylbenzamide], for which the half-inhibitory concentration (IC50) is above 10 µM.

In a further test the target is NLRP3 inflammasome (Homo sapiens, UniProt Q96P20). The test is described as follows: Inhibition of IL-1β release, NLRP3 inflammasome activation assay in HMDM. Conditions: commercial compounds (Table 9), read-out: HMDM IC50 vs NLRP3. It is filed as cell-based. As to the method: as §1
Chain of NLRP3 inflammasome (Homo sapiens, UniProt Q96P20) (Q96P20 whole entry): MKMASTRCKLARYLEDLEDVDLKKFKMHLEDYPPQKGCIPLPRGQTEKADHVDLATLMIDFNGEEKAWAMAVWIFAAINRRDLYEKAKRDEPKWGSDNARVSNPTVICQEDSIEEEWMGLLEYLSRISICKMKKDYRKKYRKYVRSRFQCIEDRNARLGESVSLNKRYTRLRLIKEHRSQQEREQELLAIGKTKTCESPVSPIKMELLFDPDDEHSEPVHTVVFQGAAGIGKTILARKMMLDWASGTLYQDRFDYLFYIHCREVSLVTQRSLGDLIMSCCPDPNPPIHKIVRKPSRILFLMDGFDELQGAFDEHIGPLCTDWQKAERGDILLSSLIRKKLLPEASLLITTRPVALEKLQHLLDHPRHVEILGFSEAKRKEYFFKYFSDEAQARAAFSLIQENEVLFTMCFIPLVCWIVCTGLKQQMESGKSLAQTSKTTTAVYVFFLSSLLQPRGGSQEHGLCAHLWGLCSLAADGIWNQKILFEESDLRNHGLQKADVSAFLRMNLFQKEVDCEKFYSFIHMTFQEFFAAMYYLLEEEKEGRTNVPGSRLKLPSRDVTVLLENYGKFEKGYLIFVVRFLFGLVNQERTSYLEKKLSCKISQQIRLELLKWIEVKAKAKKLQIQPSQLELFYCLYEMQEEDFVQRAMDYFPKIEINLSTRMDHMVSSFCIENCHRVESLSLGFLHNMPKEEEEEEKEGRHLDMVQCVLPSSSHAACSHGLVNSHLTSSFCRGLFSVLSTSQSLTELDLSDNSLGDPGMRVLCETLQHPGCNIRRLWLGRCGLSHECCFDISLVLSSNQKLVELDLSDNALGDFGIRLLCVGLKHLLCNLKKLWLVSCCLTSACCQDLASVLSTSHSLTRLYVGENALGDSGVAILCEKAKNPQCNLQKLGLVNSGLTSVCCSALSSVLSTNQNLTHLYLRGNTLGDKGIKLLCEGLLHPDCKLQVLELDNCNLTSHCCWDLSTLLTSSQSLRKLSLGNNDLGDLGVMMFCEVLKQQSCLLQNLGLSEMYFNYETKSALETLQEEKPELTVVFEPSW
To generate HMDM, human monocytes are isolated from buffy coat blood using Ficoll-Plaque Plus (GE Healthcare) and density centrifugation. CD14^+ cell selection is performed using MACS magnetic beads (Miltenyl Biotec).
HMDM are seeded at 1×10^5/ml. […] Medium is removed and replaced with serum free medium (SFM) containing test compound 30 min prior to NLRP3 stimulation. […] ATP can be sourced from Sigma Aldrich, nigericin and MSU from Invivogen and LeuLeu-Ome from Chem-Impex International.
as §2
`Cc1ccc(S(=O)(=O)NC(=O)NN2CCCCCC2)cc1` [Tolazamide, reference compound]: the IC50 is above 200 µM.

The same test, now with this note: inhibition of IL-1β release, class symbols, read-out: Avg. IL-1β IC50 HMDM.
On to `O=C(Nc1c2c(cc3c1OCC3)OCC2)NS(=O)(=O)c1cccc(C2(C(F)(F)F)N=N2)c1` [N-((2,3,6,7-tetrahydrobenzo[1,2-b:4,5-b′]difuran-4-yl)carbamoyl)-3-(3-(trifluoromethyl)-3H-diazirin-3-yl)benzenesulfonamide], for which the IC50 was below 10 µM.
Same read-out and setting: to `CC(C)c1cccc(C(C)C)c1NC(=O)NS(=O)(=O)c1cc(C(F)(F)F)n(C)n1` [N-((2,6-diisopropylphenyl)carbamoyl)-1-methyl-5-(trifluoromethyl)-1H-pyrazole-3-sulfonamide] belongs below 10 µM; to `Cc1oc(S(=O)(=O)NC(=O)Nc2c(C(C)C)cccc2C(C)C)cc1C(C)(C)O` [N-((2,6-diisopropylphenyl)carbamoyl)-4-(2-hydroxypropan-2-yl)-5-methylfuran-2-sulfonamide], below 0.1 µM.
`CC(C)(O)c1coc(S(=O)(=O)NC(=O)Nc2c3c(cc4c2C(O)CC4)CCC3)c1` (stereo not shown) [N-((3-hydroxy-1,2,3,5,6,7-hexahydro-s-indacen-4-yl)carbamoyl)-4-(2-hydroxypropan-2-yl)furan-2-sulfonamide]: the IC50 is below 1 µM.
Turning to `CC(C)(C)c1cc(C(C)(C)C)nc(NC(=O)NS(=O)(=O)c2cc(C(C)(C)O)co2)n1` [N-((4,6-di-tert-butylpyrimidin-2-yl)carbamoyl)-4-(2-hydroxypropan-2-yl)furan-2-sulfonamide], the IC50 was below 50 µM.
Still for that read-out and setting: with `[2H]C([2H])([2H])C(O)(c1cc(S(=O)(=O)NC(=O)Nc2c3c(c(Br)c4c2OCC4)CCC3)oc1C)C([2H])([2H])[2H]` [N-((4-bromo-3,5,6,7-tetrahydro-2H-indeno[5,6-b]furan-8-yl)carbamoyl)-4-(2-hydroxypropan-2-yl-1,1,1,3,3,3-d6)-5-methylfuran-2-sulfonamide] the figure was below 0.1 µM; with `CC(C)c1cc(Cl)cc(C(C)C)c1NC(=O)NS(=O)(=O)c1cccc2cnccc12` [N-((4-chloro-2,6-diisopropylphenyl)carbamoyl)isoquinoline-5-sulfonamide], below 1 µM; with `CC(C)c1cc(Cl)cc(C(C)C)c1NC(=O)NS(=O)(=O)c1ccc2ccccc2c1` [N-((4-chloro-2,6-diisopropylphenyl)carbamoyl)naphthalene-2-sulfonamide], below 10 µM.
Turning to `CC(C)c1cc(Cl)cc(C(C)C)c1NC(=O)NS(=O)(=O)c1cnc2ccccc2c1` [N-((4-chloro-2,6-diisopropylphenyl)carbamoyl)quinoline-3-sulfonamide], the IC50 was below 0.1 µM.
For `CC(C)c1cc(Cl)cc(C(C)C)c1NC(=O)NS(=O)(=O)c1cccc2ncccc12` [N-((4-chloro-2,6-diisopropylphenyl)carbamoyl)quinoline-5-sulfonamide], the IC50 is below 1 µM.
Turning to `CC(C)c1cc(Cl)cc(C(C)C)c1NC(=O)NS(=O)(=O)c1cccc2cccnc12` [N-((4-chloro-2,6-diisopropylphenyl)carbamoyl)quinoline-8-sulfonamide], the half-inhibitory concentration (IC50) was below 10 µM.
Turning to `Cc1cc(C2CC2)nc(NC(=O)NS(=O)(=O)c2cc(C(C)(C)O)co2)n1` [N-((4-cyclopropyl-6-methylpyrimidin-2-yl)carbamoyl)-4-(2-hydroxypropan-2-yl)furan-2-sulfonamide], the IC50 is below 1 µM.
With `COc1cc(NC(=O)NS(=O)(=O)c2cccc(C3(C(F)(F)F)N=N3)c2)c2ncccc2c1` [N-((6-methoxyquinolin-8-yl)carbamoyl)-3-(3-(trifluoromethyl)-3H-diazirin-3-yl)benzenesulfonamide], the IC50 was below 50 µM.
Still for that read-out and setting: with `O=C(Nc1cccc2ncccc12)NS(=O)(=O)c1cccc(C2(C(F)(F)F)N=N2)c1` [N-(quinolin-5-ylcarbamoyl)-3-(3-(trifluoromethyl)-3H-diazirin-3-yl)benzenesulfonamide] the figure was below 50 µM.
With `O=C(Nc1cccc2cccnc12)NS(=O)(=O)c1cccc(C2(C(F)(F)F)N=N2)c1` [N-(quinolin-8-ylcarbamoyl)-3-(3-(trifluoromethyl)-3H-diazirin-3-yl)benzenesulfonamide], the IC50 is below 10 µM.
On the same count and under the same terms, to `CN(C)S(=O)(=O)NC(=O)Nc1c2c(cc3c1CCC3)CCC2` [N-[1,2,3,5,6,7-hexahydro-s-indacen-4-yl]-N′-[(dimethylamino)sulfonyl]urea] belongs below 10 µM; to `CC(C)c1cc(Cl)cc(C(C)C)c1NC(=O)NS(=O)(=O)c1ccn(C(C)C)n1` [sodium ((4-chloro-2,6-diisopropylphenyl)carbamoyl)((1-isopropyl-1H-pyrazol-3-yl)sulfonyl)amide], below 1 µM.
`CC(C)c1cc(Cl)cc(C(C)C)c1NC(=O)NS(=O)(=O)c1cc(C(C)(C)O)co1` [sodium ((4-chloro-2,6-diisopropylphenyl)carbamoyl)((4-(2-hydroxypropan-2-yl)furan-2-yl)sulfonyl)amide]: the IC50 is below 0.1 µM.
As to `CC(C)c1cc(Cl)cc(C(C)C)c1NC(=O)NS(=O)(=O)c1cc(C(C)(C)O)n(C)n1` [sodium ((4-chloro-2,6-diisopropylphenyl)carbamoyl)((5-(2-hydroxypropan-2-yl)-1-methyl-1H-pyrazol-3-yl)sulfonyl)amide], the IC50 was below 0.1 µM.
As for `CC(C)c1cc(Cl)cc(C(C)C)c1NC(=O)NS(=O)(=O)c1cc(C(C)(C)O)n(-c2ccccc2)n1` [sodium ((4-chloro-2,6-diisopropylphenyl)carbamoyl)((5-(2-hydroxypropan-2-yl)-1-phenyl-1H-pyrazol-3-yl)sulfonyl)amide], the IC50 was below 0.1 µM.
